This is an account of results in ChEMBL document CHEMBL1138375, “SAR studies of 6-(arylamino)-4,4-disubstituted-1-methyl-1,4-dihydro-benzo[d][1,3]oxazin-2-ones as progesterone receptor antagonists” (Bioorg Med Chem Lett, 2007).

This experiment concerns the target T1, Progesterone receptor (Homo sapiens, UniProt P06401).
T1 sequence (P06401 whole entry): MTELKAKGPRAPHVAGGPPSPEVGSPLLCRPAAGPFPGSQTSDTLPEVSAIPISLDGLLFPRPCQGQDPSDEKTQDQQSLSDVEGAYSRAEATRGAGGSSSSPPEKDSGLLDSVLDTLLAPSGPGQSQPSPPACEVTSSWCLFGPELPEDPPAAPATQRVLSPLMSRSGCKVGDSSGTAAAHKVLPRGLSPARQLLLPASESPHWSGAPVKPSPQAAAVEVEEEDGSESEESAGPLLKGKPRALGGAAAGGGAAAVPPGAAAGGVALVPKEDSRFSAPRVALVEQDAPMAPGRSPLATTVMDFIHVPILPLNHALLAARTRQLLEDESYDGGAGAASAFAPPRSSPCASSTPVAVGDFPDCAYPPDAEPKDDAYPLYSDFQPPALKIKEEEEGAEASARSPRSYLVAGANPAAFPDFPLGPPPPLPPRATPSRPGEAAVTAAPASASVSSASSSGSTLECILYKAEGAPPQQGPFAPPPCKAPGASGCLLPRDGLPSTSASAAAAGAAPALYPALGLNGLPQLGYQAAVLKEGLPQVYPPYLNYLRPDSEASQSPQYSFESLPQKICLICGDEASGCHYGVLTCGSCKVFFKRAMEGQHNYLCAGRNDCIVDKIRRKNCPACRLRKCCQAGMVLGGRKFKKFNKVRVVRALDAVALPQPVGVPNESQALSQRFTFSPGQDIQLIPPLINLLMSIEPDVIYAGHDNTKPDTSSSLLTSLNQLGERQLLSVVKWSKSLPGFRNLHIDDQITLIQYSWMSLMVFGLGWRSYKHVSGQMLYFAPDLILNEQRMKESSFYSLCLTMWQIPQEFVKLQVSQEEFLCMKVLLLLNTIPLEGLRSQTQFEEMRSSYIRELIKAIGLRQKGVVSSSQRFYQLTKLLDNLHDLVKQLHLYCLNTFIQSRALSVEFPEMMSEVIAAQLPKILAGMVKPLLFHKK
As to the kind of experiment: Antagonist activity at progesterone receptor expressed in T47D cells assessed as inhibition of progesterone-induced alkaline phosphatase activity. In kind it is functional, cell-based.
For the compound `CCC1(CC)OC(=O)N(C)c2ccc(Nc3ccc(F)c(F)c3)cc21`, the IC50 (in general, the point on the concentration scale where inhibition reaches its midpoint) was determined as 27.4 nM.
The value for `CCC1(CC)OC(=O)N(C)c2ccc(Nc3cccc(Cl)c3)cc21` was 13.1 nM; that for `CCC1(c2ccccc2)OC(=O)N(C)c2ccc(Nc3cccc(Cl)c3)cc21` (centres undefined) was 66.1 nM.
Then `CCC1(CC)OC(=O)N(C)c2ccc(Nc3ccc(F)c(C#N)c3)cc21`, with 9.2 nM; and `CCC1(c2ccc(Cl)cc2)OC(=O)N(C)c2ccc(Nc3cccc(Cl)c3)cc21` (centres undefined), with 71.8 nM; and `CCC1(CC)OC(=O)N(C)c2ccc(Nc3ccc(C#N)c(F)c3)cc21`, with 37.1 nM.
The value for `CN1C(=O)OC(C)(C)c2cc(Nc3ccc(Br)cc3)ccc21` was 54.4 nM; that for `CCC1(CC)OC(=O)N(C)c2ccc(Nc3ccc(Cl)c(Cl)c3)cc21` was 29.8 nM.
In the case of `CN1C(=O)OC(C)(C)c2cc(Nc3cccc(Cl)c3Cl)ccc21`, the IC50 was 56 nM.
The value for `CCC1(CC)OC(=O)N(C)c2ccc(Nc3cc(F)cc(C#N)c3)cc21` was 14.5 nM.
As for `CCC1(CC)OC(=O)N(C)c2ccc(Nc3cccc(Cl)c3Cl)cc21`, the IC50 was 5 nM.
The value for `CCC1(CC)OC(=O)N(C)c2ccc(Nc3ccc(F)c(Cl)c3)cc21` was 9 nM.
`CCC1(CC)OC(=O)N(C)c2ccc(Nc3cc(Cl)cc(Cl)c3)cc21`: the IC50 was 8.1 nM.
The value for `CN1C(=S)OC(C)(C)c2cc(Nc3ccc(Br)cc3)ccc21` was 30 nM; that for `CC(C)N1C(=O)OC(C)(C)c2cc(Nc3ccc(Br)cc3)ccc21` was 1000 nM.
Consider `CN1C(=O)OC(C)(C)c2cc(Nc3ccc(Cl)c(Cl)c3)ccc21`, for which the IC50 is 100 nM.
The value for `CCC1(CC)OC(=S)N(C)c2ccc(Nc3ccc(F)c(F)c3)cc21` was 42.2 nM.
As for `CCC1(c2cccs2)OC(=O)N(C)c2ccc(Nc3cccc(Cl)c3)cc21` (centres undefined), the concentration for half-maximal inhibition (IC50) came to 32.2 nM.
Turning to `CC1(C)OC(=O)N(Cc2ccccc2)c2ccc(Nc3ccc(Br)cc3)cc21`, the IC50 is 3000 nM.
Then `CCN1C(=O)OC(C)(C)c2cc(Nc3ccc(Br)cc3)ccc21`, with 1000 nM; and `CN1C(=O)OC(c2ccc(Cl)cc2)(c2ccc(Cl)cc2)c2cc(Nc3cccc(Cl)c3)ccc21`, with 1000 nM; and `CCC1(CC)OC(=O)N(C)c2ccc(Nc3cc(F)cc([N+](=O)[O-])c3)cc21`, with 8.4 nM.
Then `CC1(C)OC(=O)N(c2ccccc2)c2ccc(Nc3ccc(Br)cc3)cc21`, with 3000 nM; and `CC1(C)OC(=O)Nc2ccc(Nc3cccc(Cl)c3Cl)cc21`, with 206 nM.
